pIC50: −log10 of the molar value. Like-named read-outs stand apart in the source and are kept apart here.
Experiments:
Tyk2 = Tyk2 (Homo sapiens (Human), UniProt P29597); assay: pSTAT4 Cell Assay (MSD, NK92 cells); format: cell-based
JH2 domain of human Tyk2 = JH2 domain of human Tyk2 (Homo sapiens (Human), UniProt P29597); assay: JH2 Biochemical Assay (TR-FRET probe displacement); format: binding
[1] = JH2 domain of human Tyk2, TR-FRET probe displacement
[2] = TR-FRET probe displacement, JH2 domain
[3] = TR-FRET probe displacement, JH2 domain of human Tyk2

Chain of Tyk2 (P29597 whole entry, the tested form may be a part): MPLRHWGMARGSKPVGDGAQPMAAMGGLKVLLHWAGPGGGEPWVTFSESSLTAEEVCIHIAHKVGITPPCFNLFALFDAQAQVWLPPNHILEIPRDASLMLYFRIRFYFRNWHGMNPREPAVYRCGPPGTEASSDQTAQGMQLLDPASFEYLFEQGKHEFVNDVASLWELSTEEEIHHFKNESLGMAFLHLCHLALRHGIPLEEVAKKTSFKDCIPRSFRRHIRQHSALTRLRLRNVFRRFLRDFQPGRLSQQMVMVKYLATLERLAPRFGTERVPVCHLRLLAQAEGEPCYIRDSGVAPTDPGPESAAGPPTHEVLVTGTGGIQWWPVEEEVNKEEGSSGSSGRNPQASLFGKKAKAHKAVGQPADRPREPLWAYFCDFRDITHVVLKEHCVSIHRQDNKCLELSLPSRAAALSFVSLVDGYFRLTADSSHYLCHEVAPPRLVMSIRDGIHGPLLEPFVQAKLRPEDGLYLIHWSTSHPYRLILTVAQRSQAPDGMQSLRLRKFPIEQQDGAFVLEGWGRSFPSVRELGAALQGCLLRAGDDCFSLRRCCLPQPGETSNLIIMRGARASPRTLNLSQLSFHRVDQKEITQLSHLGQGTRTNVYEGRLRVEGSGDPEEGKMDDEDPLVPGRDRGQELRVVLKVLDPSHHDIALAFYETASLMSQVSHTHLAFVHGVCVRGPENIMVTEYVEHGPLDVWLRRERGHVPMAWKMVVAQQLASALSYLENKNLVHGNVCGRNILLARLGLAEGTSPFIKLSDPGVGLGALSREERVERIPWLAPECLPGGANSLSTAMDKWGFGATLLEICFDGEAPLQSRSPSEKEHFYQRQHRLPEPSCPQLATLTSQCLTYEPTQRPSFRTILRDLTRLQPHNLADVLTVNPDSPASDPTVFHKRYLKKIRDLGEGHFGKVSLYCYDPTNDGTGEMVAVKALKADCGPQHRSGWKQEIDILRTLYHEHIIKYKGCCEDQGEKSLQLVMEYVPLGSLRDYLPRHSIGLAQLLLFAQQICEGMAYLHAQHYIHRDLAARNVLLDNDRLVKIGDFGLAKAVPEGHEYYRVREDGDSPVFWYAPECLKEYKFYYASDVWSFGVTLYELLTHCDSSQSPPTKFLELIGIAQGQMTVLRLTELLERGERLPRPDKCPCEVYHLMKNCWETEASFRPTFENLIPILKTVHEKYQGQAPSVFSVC
Chain of JH2 domain of human Tyk2 (P29597 575-876): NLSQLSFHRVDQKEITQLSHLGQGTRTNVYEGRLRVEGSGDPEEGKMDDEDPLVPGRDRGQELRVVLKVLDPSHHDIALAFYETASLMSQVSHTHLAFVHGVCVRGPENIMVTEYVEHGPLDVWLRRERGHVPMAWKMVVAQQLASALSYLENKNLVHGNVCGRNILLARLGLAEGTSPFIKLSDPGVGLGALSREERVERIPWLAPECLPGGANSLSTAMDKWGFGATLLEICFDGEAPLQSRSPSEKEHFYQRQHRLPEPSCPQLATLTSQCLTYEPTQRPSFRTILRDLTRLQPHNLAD

Row | SMILES | pIC50 (Tyk2; MSD) | pIC50 (JH2 domain of human Tyk2; [1]) | pIC50 (Tyk2) | pIC50 (JH2 domain of human Tyk2; [2]) | pIC50 (JH2 domain of human Tyk2; [3])
1 | COc1cnc(NC(C)=O)cc1Nc1cc(-c2ccncc2)nc(C(C)(F)F)n1 [Example 382, N-(4-((2-(1,1-difluoroethyl)-6-(pyridin-4-yl)pyrimidin-4-yl)amino)-5-methoxypyridin-2-yl)acetamide] | 7.00 to 8.00 | 7.00 to 8.00 | – | – | –
2 | COC1(C)CN(c2cnc(-c3cnc(NC(C)=O)cc3Nc3ccnc(C(C)(F)F)n3)cn2)C1 [Example 868, N-(4-((2-(1,1-difluoroethyl)pyrimidin-4-yl)amino)-5-(5-(3-methoxy-3-methylazetidin-1-yl)pyrazin-2-yl)pyridin-2-yl)acetamide] | – | – | 7.00 to 8.00 | ≥ 8.00 | –
3 | CCC(COc1cnc(NC(C)=O)cc1Nc1cc(C)nc(C(C)(F)F)n1)OC (stereo not drawn) [Example 424, N-(4-((2-(1,1-difluoroethyl)-6-methylpyrimidin-4-yl)amino)-5-(2-methoxybutoxy)pyridin-2-yl)acetamide] | 7.00 to 8.00 | ≥ 8.00 | – | – | –
4 | CC(=O)Nc1cc(Nc2cc(C)nc(C(C)(F)F)n2)c(-c2cc(F)n(C)n2)cn1 [Example 814, N-(4-((2-(1,1-difluoroethyl)-6-methylpyrimidin-4-yl)amino)-5-(5-fluoro-1-methyl-1H-pyrazol-3-yl)pyridin-2-yl)acetamide] | – | – | ≥ 8.00 | ≥ 8.00 | –
5 | COc1cc(COc2cnc(NC(C)=O)cc2Nc2cc(C)nc(C(C)(F)F)n2)on1 [Example 322, N-(4-((2-(1,1-difluoroethyl)-6-methylpyrimidin-4-yl)amino)-5-((3-methoxyisoxazol-5-yl)methoxy)pyridin-2-yl)acetamide] | 7.00 to 8.00 | – | – | – | ≥ 8.00
6 | CC(=O)Nc1cc(Nc2cc(C)nc(C(C)(F)F)n2)c(-c2cc(CN(C)C)n(C)n2)cn1 [Example 287, N-(4-((2-(1,1-difluoroethyl)-6-methylpyrimidin-4-yl)amino)-5-(5-((dimethylamino)methyl)-1-methyl-1H-pyrazol-3-yl)pyridin-2-yl)acetamide] | ≥ 8.00 | – | – | – | ≥ 8.00
7 | COc1cc(Nc2cc(NC(C)=O)ncc2OC)nc(C(C)(F)F)n1 [Example 18, N-(4-((2-(1,1-difluoroethyl)-6-methoxypyrimidin-4-yl)amino)-5-methoxypyridin-2-yl)acetamide] | 7.00 to 8.00 | – | – | – | ≥ 8.00
8 | CC(=O)Nc1cc(Nc2cc(C)nc(C(C)(F)F)n2)c(OCCCC2CCCO2)cn1 (stereo not drawn) [Example 434, N-(4-((2-(1,1-difluoroethyl)-6-methylpyrimidin-4-yl)amino)-5-(3-(tetrahydrofuran-2-yl)propoxy)pyridin-2-yl)acetamide] | 7.00 to 8.00 | ≥ 8.00 | – | – | –
9 | CC(=O)Nc1cc(Nc2cc(C)nc(C(C)(F)F)n2)c(OC[C@H]2CCC[C@@H](C)O2)cn1 (stereo in doubt) [Example 418, Cis-rac-N-(4-((2-(1,1-difluoroethyl)-6-methylpyrimidin-4-yl)amino)-5-(((2R,6R)-6-methyltetrahydro-2H-pyran-2-yl)methoxy)pyridin-2-yl)acetamide] | ≥ 8.00 | ≥ 8.00 | – | – | –
10 | COCCOc1cnc(NC(C)=O)cc1Nc1cc(-c2cnn(C(C)C)c2)nc(C(C)(F)F)n1 [Example 366, N-(4-((2-(1,1-difluoroethyl)-6-(1-isopropyl-1H-pyrazol-4-yl)pyrimidin-4-yl)amino)-5-(2-methoxyethoxy)pyridin-2-yl)acetamide] | ≥ 8.00 | – | – | – | ≥ 8.00
11 | COC(C)c1ccc(-c2cnc(NC(C)=O)cc2Nc2cc(C)nc(C34COC(C3)C4)n2)nc1 (stereo not drawn) [Example 575, N-(4′-((2-(2-oxabicyclo[2.1.1]hexan-4-yl)-6-methylpyrimidin-4-yl)amino)-5-(1-methoxyethyl)-[2,3′-bipyridin]-6′-yl)acetamide] | ≥ 8.00 | ≥ 8.00 | – | – | –
12 | CCOc1cnc(NC(C)=O)cc1Nc1cc(C(C)(F)F)ccn1 [Example 2, N-(4-((4-(1,1-difluoroethyl)pyridin-2-yl)amino)-5-ethoxypyridin-2-yl)acetamide] | ≤ 6.00 | – | – | – | 7.00 to 8.00
13 | COCCN(C)c1nc(-c2cnc(NC(C)=O)cc2Nc2cc(C)nc(C(C)(F)F)n2)cs1 [Example 772, N-(4-((2-(1,1-difluoroethyl)-6-methylpyrimidin-4-yl)amino)-5-(2-((2-methoxyethyl)(methyl)amino)thiazol-4-yl)pyridin-2-yl)acetamide] | – | – | ≥ 8.00 | ≥ 8.00 | –
14 | CC(=O)Nc1cc(Nc2cc(C)nc(C(C)(F)F)n2)c(-c2cccc(C(C)(C)C#N)n2)cn1 [Example 654, N-(6-(2-cyanopropan-2-yl)-4′-((2-(1,1-difluoroethyl)-6-methylpyrimidin-4-yl)amino)-[2,3′-bipyridin]-6′-yl)acetamide] | ≥ 8.00 | ≥ 8.00 | – | – | –
15 | CC(=O)Nc1cc(Nc2cc(C)nc(C(C)(F)F)n2)c(-c2ccn(CC3CC3)n2)cn1 [Example 614, N-(5-(1-(cyclopropylmethyl)-1H-pyrazol-3-yl)-4-((2-(1,1-difluoroethyl)-6-methylpyrimidin-4-yl)amino)pyridin-2-yl)acetamide] | ≥ 8.00 | ≥ 8.00 | – | – | –
16 | COc1cnc(NC(C)=O)cc1Nc1cc(O[C@H]2C[C@@H](F)C2)nc(C(C)(F)F)n1 [Example 461, N-(4-((2-(1,1-difluoroethyl)-6-((1s,3s)-3-fluorocyclobutoxy)pyrimidin-4-yl)amino)-5-methoxypyridin-2-yl)acetamide] | 7.00 to 8.00 | ≥ 8.00 | – | – | –
17 | CC(=O)Nc1cc(Nc2cc(OC3CC3)nc(C(C)(F)F)n2)c(OCc2ccccn2)cn1 [Example 348, N-(4-((6-cyclopropoxy-2-(1,1-difluoroethyl)pyrimidin-4-yl)amino)-5-(pyridin-2-ylmethoxy)pyridin-2-yl)acetamide] | 7.00 to 8.00 | – | – | – | ≥ 8.00
18 | CCc1cc(Nc2cc(NC(C)=O)ncc2-c2ccc(N(C)C)nn2)nc(C(C)(F)F)n1 [Example 862, N-(4-((2-(1,1-difluoroethyl)-6-ethylpyrimidin-4-yl)amino)-5-(6-(dimethylamino)pyridazin-3-yl)pyridin-2-yl)acetamide] | – | – | ≥ 8.00 | ≥ 8.00 | –
19 | CC(=O)Nc1cc(Nc2ccnc(C(C)(F)F)n2)c(-c2cc(OC(F)F)ncn2)cn1 [Example 767, N-(4-((2-(1,1-difluoroethyl)pyrimidin-4-yl)amino)-5-(6-(difluoromethoxy)pyrimidin-4-yl)pyridin-2-yl)acetamide] | – | – | 7.00 to 8.00 | ≥ 8.00 | –
20 | CC(=O)Nc1cc(Nc2cc(C)nc(C(C)(F)F)n2)c(-c2cc(CN3CCCC3)ccn2)cn1 [Example 805, N-(4′-((2-(1,1-difluoroethyl)-6-methylpyrimidin-4-yl)amino)-4-(pyrrolidin-1-ylmethyl)-[2,3′-bipyridin]-6′-yl)acetamide] | – | – | 7.00 to 8.00 | ≥ 8.00 | –
21 | COCCn1cc(-c2cnc(NC(C)=O)cc2Nc2cc(C)nc(C(C)(F)F)n2)nn1 [Example 259, N-(4-((2-(1,1-difluoroethyl)-6-methylpyrimidin-4-yl)amino)-5-(1-(2-methoxyethyl)-1H-1,2,3-triazol-4-yl)pyridin-2-yl)acetamide] | ≥ 8.00 | – | – | – | ≥ 8.00
22 | CC(=O)Nc1cc(Nc2cc(C)nc(C(C)(C)F)n2)c(-c2ccn3ccnc3n2)cn1 [Example 533, N-(4-((2-(2-fluoropropan-2-yl)-6-methylpyrimidin-4-yl)amino)-5-(imidazo[1,2-a]pyrimidin-7-yl)pyridin-2-yl)acetamide] | ≥ 8.00 | ≥ 8.00 | – | – | –
23 | CC(=O)Nc1cc(Nc2cc(C)nc(C(C)(F)F)n2)c(-c2cc(N(C)C)ccn2)cn1 [Example 627, N-(4′-((2-(1,1-difluoroethyl)-6-methylpyrimidin-4-yl)amino)-4-(dimethylamino)-[2,3′-bipyridin]-6′-yl)acetamide] | ≤ 6.00 | 6.00 to 7.00 | – | – | –
24 | CCc1cc(Nc2cc(NC(C)=O)ncc2-c2ccc(=O)n(C)n2)nc(C(C)(F)F)n1 [Example 865, N-(4-((2-(1,1-difluoroethyl)-6-ethylpyrimidin-4-yl)amino)-5-(1-methyl-6-oxo-1,6-dihydropyridazin-3-yl)pyridin-2-yl)acetamide] | – | – | 7.00 to 8.00 | ≥ 8.00 | –
25 | CC(=O)Nc1cc(Nc2cc(C)nc(C(C)(F)F)n2)c(-c2cc(NC(C)C)cnn2)cn1 [Example 254, N-(4-((2-(1,1-difluoroethyl)-6-methylpyrimidin-4-yl)amino)-5-(5-(isopropylamino)pyridazin-3-yl)pyridin-2-yl)acetamide] | ≥ 8.00 | – | – | – | ≥ 8.00
26 | CCc1cc(Nc2cc(NC(C)=O)ncc2-c2ccc(COC)cn2)nc(C(C)(F)F)n1 [Example 846, N-(4′-((2-(1,1-difluoroethyl)-6-ethylpyrimidin-4-yl)amino)-5-(methoxymethyl)-[2,3′-bipyridin]-6′-yl)acetamide] | – | – | ≥ 8.00 | ≥ 8.00 | –
27 | CC(=O)Nc1cc(Nc2ccnc(C(C)(F)F)n2)c(-c2cncc(CC#N)n2)cn1 [Example 688, N-(5-(6-(cyanomethyl)pyrazin-2-yl)-4-((2-(1,1-difluoroethyl)pyrimidin-4-yl)amino)pyridin-2-yl)acetamide] | 6.00 to 7.00 | ≥ 8.00 | – | – | –
28 | COCCOc1cnc(NC(C)=O)cc1Nc1cc(C)nc(C(F)CF)n1 (stereo not drawn) [Example 79, N-(4-((2-(1,2-difluoroethyl)-6-methylpyrimidin-4-yl)amino)-5-(2-methoxyethoxy)pyridin-2-yl)acetamide] | 7.00 to 8.00 | – | – | – | ≥ 8.00
29 | CC(=O)Nc1cc(Nc2cc(C)nc(C(C)(F)F)n2)c(OCC2CN(C(C)C)CCO2)cn1 (stereo not drawn) [Example 503, N-(4-((2-(1,1-difluoroethyl)-6-methylpyrimidin-4-yl)amino)-5-((4-isopropylmorpholin-2-yl)methoxy)pyridin-2-yl)acetamide] | 7.00 to 8.00 | ≥ 8.00 | – | – | –
30 | CC(=O)Nc1cc(Nc2ccnc(C(C)(F)F)n2)c(-c2cnn(CCN3CCN(C)CC3)n2)cn1 [Example 779, N-(4-((2-(1,1-difluoroethyl)pyrimidin-4-yl)amino)-5-(2-(2-(4-methylpiperazin-1-yl)ethyl)-2H-1,2,3-triazol-4-yl)pyridin-2-yl)acetamide] | – | – | 7.00 to 8.00 | ≥ 8.00 | –

— US20260028365A1 (BIOGEN MA INC., priority 2022, published 2026)
